How the values were obtained:
Assay type in all cases: in vivo
[1] = test system: barnyardgrass (Echinochloa crus-galli (L.) Beauv.) (BG); assay: Preemergence herbicide test, soil drench, barnyardgrass; conditions: Echinochloa crus-galli, 336 h, 10 lbs/A (11.2 kg/ha) soil drench, two weeks after treatment, vs untreated checks, read-out: Percent Weed Control BG
Summary of the method: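 Compound formulated in acetone with ethoxylated sorbitan monolaurate, diluted to 250 ppm and drenched onto soil surface of seeded pots at 10 pounds/acre (11.2 kg/ha), preemergence. Percent weed control versus untreated checks scored two weeks after treatment.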

[2] = test system: switchgrass (Panicum virgahim L.) (SG); assay: Preemergence herbicide test, soil drench, switchgrass; conditions: Panicum, 336 h, 10 lbs/A (11.2 kg/ha) soil drench, two weeks after treatment, vs untreated checks, read-out: Percent Weed Control SG
Summary of the method: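 Preemergence soil drench at 10 pounds/acre (11.2 kg/ha), 46 mL of 250 ppm aqueous solution (acetone, ethoxylated sorbitan monolaurate) applied to pots sown with switchgrass seed. Percent weed control versus untreated checks scored two weeks after treatment.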

[3] = test system: tall morningglory (Ipomoea purpurea (L.) Roth) (TM); assay: Postemergence herbicide test, foliar spray, tall morningglory; conditions: 3000 ppm foliar spray to drip point, treated six days after emergence, two weeks after treatment
Protocol: (§1) To illustrate the effectiveness of the previously described substituted oxadiazines of this invention as preemergence herbicides, 300 mg of the chemical was dissolved in a composition comprising 10 mL acetone to which 30 mg of tile emulsifying agent, ethoxylated sorbitan monolaurate, was added. The solution was diluted to 100 mL with distilled water. Ten milliliters of this 3000 ppm solution was diluted to 250 ppm with distilled water. The chemical was applied at the rate of 10 pounds/acre (11.2 kg/ha) by drenchings 46 mL of the 250 ppm solution on the surface of soil in 4½ inch (11.25 cm) plastic pots wherein seeds of the following weeds had been planted: tall morningglory (Ipomoea purpurea (L.) Roth) (TM), To illustrate the effectiveness of the described substituted oxadiazines as postemergence herbicides, the 3000 ppm solution described under Example 5 was atomized with a conventional DeVilbiss™ sprayer, wetting the foliage to the drip point. The weeds, which were the same species as described in Example 5, were treated six days after emergence. The percent weed control was evaluated two weeks after treatment.

[4] = test system: barnyardgrass (Echinochloa crus-galli (L.) Beauv.) (BG); assay: Postemergence herbicide test, foliar spray, barnyardgrass; conditions: 3000 ppm foliar spray to drip point, treated six days after emergence, two weeks after treatment
Protocol: as §1, with “barnyardgrass (Echinochloa crus-galli” for “tall morningglory (Ipomoea purpurea”, “Beauv.) (BG), and” for “Roth) (TM),”

[5] = test system: switchgrass (Panicum virgahim L.) (SG); assay: Postemergence herbicide test, foliar spray, switchgrass; conditions: 3000 ppm foliar spray to drip point, treated six days after emergence, two weeks after treatment
Protocol: as §1, with “41⁄2” for “4½”, “switchgrass (Panicum […].) (SG),” for “tall morningglory (Ipomoea purpurea (L.) Roth) (TM),”, “DeVilbissTM” for “DeVilbiss™”

[6] = test system: green foxtail (Setaria virdis (L.) Beauv.) (GF); assay: Postemergence herbicide test, foliar spray, green foxtail; conditions: 3000 ppm foliar spray to drip point, treated six days after emergence, two weeks after treatment
Protocol: as §1, with “41⁄2” for “4½”, “green foxtail (Setaria […].) Beauv.) (GF).” for “tall morningglory (Ipomoea purpurea (L.) Roth) (TM),”, “DeVilbissTM” for “DeVilbiss™”

Row | SMILES | pest or weed control at 11208.5 g/ha [1] [%] | pest or weed control at 11208.5 g/ha [2] [%] | Percent Weed Control TM [3] [%] | Percent Weed Control BG [4] [%] | Percent Weed Control SG [5] [%] | Percent Weed Control GF [6] [%]
1 | FC(F)(F)C1=NC(C(F)(F)F)(C(F)(F)F)N=C(c2cccc(Cl)c2)O1 [Compound 4, 2-(3-chlorophenyl)-4,4,6-tris(trifluoromethyl)-4H-1,3,5-oxadiazine] | 100 | 100 | 100 | 100 | 80 | 100
2 | FC(F)(F)C(F)(F)C1=NC(C(F)(F)F)(C(F)(F)F)N=C(c2cccc(Cl)c2)O1 [Compound 13, 2-(3-chlorophenyl)-6-(pentafluoroethyl)-4,4-bis(trifluoromethyl)-4H-1,3,5-oxadiazine] | 100 | 100 | 100 | 80 | 90 | 100
3 | Fc1ccc(C2=NC(C(F)(F)F)(C(F)(F)F)N=C(C(F)(F)C(F)(F)F)O2)cc1Cl [Compound 20, 2-(3-chloro-4-fluorophenyl)-6-(pentafluoroethyl)-4,4-bis(trifluoromethyl)-4H-1,3,5-oxadiazine] | 100 | 100 | 0 | 30 | 30 | 0
4 | FC(F)(F)C(F)(F)C1=NC(C(F)(F)F)(C(F)(F)F)N=C(c2ccc(Cl)cc2)O1 [Compound 24, 2-(4-chlorophenyl)-6-(pentafluoroethyl)-4,4-bis(trifluoromethyl)-4H-1,3,5-oxadiazine] | 90 | 100 | 0 | 20 | 20 | 0
5 | FC(F)(F)C(F)(F)C1=NC(C(F)(F)F)(C(F)(F)F)N=C(c2ccc(Br)cc2)O1 [Compound 25, 2-(4-bromophenyl)-6-(pentafluoroethyl)-4,4-bis(trifluoromethyl)-4H-1,3,5-oxadiazine] | 90 | 100 | 20 | 50 | 0 | 30
